# Experimental data: patent publication US12691097B2, “Methods and compositions for treating polyomavirus” (Brown University, priority 2022, dated 2026)
# “Also recorded” adds a separate entry of the source.
# Tests used:
# JCPyV [1] = system: JCPyV; parameters: unit not given beside the values; details: cells not given; cited from earlier work
# JCPyV [2] = test: initial JCPyV infection in SVG-A glial cells, indirect immunofluorescent quantification of viral proteins; format: cell-based, JC polyomavirus; details: pre-treatment
# JCPyV [3] = test: initial JCPyV infection in primary normal human astrocytes (NHA), indirect immunofluorescent quantification of viral proteins; format: cell-based, JC polyomavirus; details: pre-treatment
# [4] = cytotoxicity in SVG-A cells; format: cell-based; details: human, read-out: 50% cytotoxic concentration (CC50)
# [5] = cytotoxicity in NHA cells; format: cell-based; details: human, read-out: 50% cytotoxic concentration (CC50)
# JCPyV [6] = test: long-term cell-to-cell spread of JCPyV; format: cell-based, JC polyomavirus; details: introduced after establishment of a productive infection
# Excerpt: SI50 values are important metrics in drug discovery, and an SI50 greater than 10 is commonly considered to be an important starting point in drug development.
# ERK1/2 = test: endogenous ERK phosphorylation, with or without PMA; format: cell-based
# JCPyV [7] = test: rescue of JCPyV infection by PMA cotreatment in SVG-A cells; format: cell-based, JC polyomavirus; details: SVG-A cells cotreated with PMA and GW-5074
# [8] = system: human and simian polyomaviruses; test: initial infection by human and simian polyomaviruses (FIG. 4); format: cell-based
# JCPyV [9] = test: JCPyV infection, cells not stated (FIG. 1, FIG. 2); format: cell-based, JC polyomavirus
# PML = test: administration to patients with or at risk of PML (Examples 1-6); format: in vivo
# Excerpt: The patient's difficulty in walking is decreased. […] The patient's facial drooping is decreased. […] The patient's loss of vision is decreased. […] The patient's seizures are decreased. […].
# [10] = patient with early signs of PML
compound,measurement,setting,value
CN(C)CCCN1c2ccccc2Sc2ccc(Cl)cc21 [chlorpromazine],SI50 of established compounds with anti-JCPyV activity,JCPyV [1],2.0
"O=C1Nc2ccc(I)cc2C1=Cc1cc(Br)c(O)c(Br)c1 [GW-5074, 3-(3,5-dibromo-4-hydroxybenzylidene)-5-iodoindolin-2-one]",IC50,"JCPyV [2]; JC polyomavirus, SVG-A cells, one round of productive infection, read-out: 50% inhibitory concentration (IC50)",6.8 µM
same,initial JCPyV infection,"JCPyV [2]; SVG-A glial cells, non-toxic concentrations",potently reduced initial JCPyV infection
same,IC50,"JCPyV [3]; JC polyomavirus, Astrocyte, NHA cells, one round of productive infection, read-out: 50% inhibitory concentration (IC50)",0.84 µM
same,initial JCPyV infection,"JCPyV [3]; primary normal human astrocytes, non-toxic concentrations",reduction of initial infection; also recorded: potently reduced initial JCPyV infection
same,CC50,[4],> 100 µM
same,CC50,[5],> 20 µM
same,long-term cell-to-cell spread of JCPyV,JCPyV [6],inhibition of viral spread; also recorded: inhibited long-term cell-to-cell spread of JCPyV
same,endogenous ERK phosphorylation,ERK1/2,inhibits endogenous ERK1/2 phosphorylation; also recorded: inhibited endogenous ERK phosphorylation
same,restoration of ERK activity,ERK1/2; coincubation with PKC agonist PMA,ERK activity could not be restored
same,rescue of JCPyV infection,JCPyV [7],JCPyV infection could not be rescued
same,initial infection by human and simian polyomaviruses,[8],reduction of initial infection
same,initial JCPyV infection,"JCPyV [9]; FIG. 1, cells not stated",reduction in initial JCPyV infection
same,protective effect,JCPyV [9]; FIG. 2,protective effect
same,development of PML,PML; patient at risk for the development of PML,does not develop PML
same,difficulty in walking,PML; [10],decreased
same,facial drooping,PML; [10],decreased
same,loss of vision,PML; [10],decreased
same,loss of vision,PML; patient with mid-stage PML,decreased
same,seizures,PML; patient with mid-stage PML,decreased
OC(c1cc(C(F)(F)F)nc2c(C(F)(F)F)cccc12)C1CCCCN1 (stereo not shown) [mefloquine],SI50 of established compounds with anti-JCPyV activity,JCPyV [1],4.0
Cc1ccc(C2Nc3ccccc3C(=O)N2c2ccccc2)s1 (stereo not shown) [Retro-2^cycl],SI50 of established compounds with anti-JCPyV activity,JCPyV [1],7.4
